Experimental data as given in patent US10183032B2, “Methods for treating bacterial infection” (Ball State Innovation Corporation, priority 2012, dated 2019).

How the values were obtained:
host cell = assay: Host cell cytotoxicity in vitro (preliminary data); assay type: cell-based
[1] = tested on: Human umbilical vein endothelial cells; assay: Cytotoxicity assay (XTT), HUVEC; assay type: cell-based; settings: HUVEC treated overnight, PEG solvent
Protocol: FIG. 6A illustrates that neither cytotoxicity nor bactericidal activity is detected. Human umbilical vein endothelial cells (HUVEC) were pretreated (18 hours) with the vehicle control polyethylene glycol (PEG) or with ML 141 and viability assessed using an XTT assay. The formazan dye produced in living cells was detectable at an absorbance wavelength of 490 nanometers and used as an indicator of cell viability. Absorbance values were not different amongst the groups (p>0.05 by one-way ANOVA; n=3/treatment).
HUVEC are plated at a density of 1.2×10^4 cells/ml into 96-well dishes coated with Attachment Factor. The next day, cells are pretreated with the vehicle control DMSO or with ML 141 (18 hours). An XTT-reducing assay is performed and absorbance read at 490 nanometers using a Bio-Rad plate reader.

actin stress fibers = assay: Actin stress fiber depolymerization in HUVEC during S. aureus infection; assay type: cell-based, human; settings: 18-20 h pretreatment, S. aureus 1 h
Protocol: (§1) FIG. 8A is an image depicting ML 141 limiting actin stress fiber depolymerization during infection. Human umbilical vein endothelial cells (HUVEC) were incubated with ML 141 or with the vehicle control polyethylene glycol (PEG) 18-20 h prior to infection with Staphylococcus aureus (1 h). Actin was detected using Alexa Fluor 488 phalloidin. Arrows indicate intact actin stress fibers. Arrowhead indicates cell lacking actin stress fibers. 100 cells/treatment were evaluated from randomly selected fields. Data are presented as the % of cells in which actin stress fibers were not detected. Scale bar is 50 μm.
as §1, with “8B” for “8A”, “RSM 06” for “ML 141”, “200” for “Arrows indicate intact actin stress fibers. Arrowhead indicates cell lacking actin stress fibers. 100”
as §1, with “8C” for “8A”, “RSM 16” for “ML 141”, “200” for “Arrows indicate intact actin stress fibers. Arrowhead indicates cell lacking actin stress fibers. 100”
HUVEC are plated at 1×10^5 cells/ml into 35 mm glass-bottom dishes (MatTek, Ashland, Mass.) are coated with Attachment Factor, are pretreated, and are infected (1.2×10^8 CFU) as described above. […] Alexa 488 is excited by the 488 nanommeter Ar laser line and is detected using a 505-530 nanometer bandpass filter. […] Maximum pixel projections from the Z-stacks are generated and are analyzed for actin morphology.

[2] = tested on: Human umbilical vein endothelial cells; assay: Cytotoxicity by propidium iodide exclusion, HUVEC; assay type: cell-based
RAW 264.7 cells = assay: Cytotoxicity by propidium iodide, RAW 264.7 cells; assay type: cell-based; settings: RAW 264.7 pretreated 18-20 h
[3] = tested on: Human umbilical vein endothelial cells; assay: Transmission electron microscopy of infected HUVEC; assay type: cell-based; settings: ML 141 10 μM, S. aureus MOI 30, 2 h
Protocol: FIG. 9 is an image depicting ML 141 limiting damage to host cells. Human umbilical vein endothelial cells were incubated with the vehicle control polyethylene glycol (PEG) or with ML 141 (10 μM) 18-20 h prior to infection with Staphylococcus aureus at a multiplicity of infection of 30 (2 h). Following infection, extracellular bacteria were removed by incubating with lysostaphin and gentamicin (45 min), antimicrobials with limited mammalian membrane permeability. Antimicrobial-containing media was replenished and incubation extended an additional 24 h. Cells were fixed, stained, and examined by transmission electron microscopy. White arrow indicates mitochondria. Black arrow indicates filopodia. White arrowhead indicates membranous structure surrounding bacteria. Black arrowhead indicates dividing bacteria. Scale bar is 5 μm.
HUVEC were plated onto glass coverslips at […], pretreated and infected at a multiplicity of infection (MOI) of 30 for 2 h. Extracellular bacteria were removed and cells incubated for an additional 24 h in media containing antibiotics. […]

COc1ccc(C2CC(c3ccccc3)=NN2c2ccc(S(N)(=O)=O)cc2)cc1 (stereo not shown) [ML 141, 4-[3-(4-methoxyphenyl)-5-phenyl-3,4-dihydropyrazol-2-yl]benzenesulfonamide]
concentration at which host cell cytotoxicity was undetectable (host cell): below 30 μM | Cytotoxicity (XTT, absorbance 490 nm) [1]: not detectable | depolymerization of actin stress fibers during infection (actin stress fibers): remained intact | Cytotoxicity (in words) ([2]; 10 μM, 18-20 h, Tables 4 and 5): not detected | Mean fluorescence intensity (×10^4 ± SEM), Compound (10 μM) ([2]; HUVEC pretreated 18-20 h): 2.1 ± 0.3 ×10^4 | Mean fluorescence intensity (×10^3 ± SEM), Compound (10 μM) (RAW 264.7 cells): 2.5 ± 0.3 ×10^3 | host cell ultrastructure 24 h post-invasion (organelles) [3]: remained intact
